In patent US20110212078A1, “SYNTHESIS AND USE OF HETEROCYCLIC ANTIBACTERIAL AGENTS” (priority 2008, published 2011):

Molecular target: T1, LpxC enzyme (Escherichia coli, UniProt P0A725)
T1 sequence (P0A725 1-305): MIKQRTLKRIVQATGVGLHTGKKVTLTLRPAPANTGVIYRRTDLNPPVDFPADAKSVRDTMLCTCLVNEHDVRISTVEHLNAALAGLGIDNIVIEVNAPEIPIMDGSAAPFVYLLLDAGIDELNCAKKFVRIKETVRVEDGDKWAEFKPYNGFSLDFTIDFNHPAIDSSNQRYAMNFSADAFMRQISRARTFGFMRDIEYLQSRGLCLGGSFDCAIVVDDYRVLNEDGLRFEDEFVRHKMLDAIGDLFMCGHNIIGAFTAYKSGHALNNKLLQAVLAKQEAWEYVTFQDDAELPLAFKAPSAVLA
Test: standard LpxC assay (RapidFire high-throughput mass spectrometry)
Type: biochemical
Conditions: 0.2 nM LpxC enzyme, 1.0 μM UDP-3-O-(R-3-hydroxymyristoyl)-N-acetylglucosamine, 60 minutes at room temperature; read-out: E. coli IC50
Description: The standard LpxC assay consists of 0.2 nM LpxC enzyme, 1.0 μM UDP-3-O—(R-3-hydroxymyristoyl)-N-acetylglucosamine, and test compound, in assay buffer and 2% DMSO. Assay buffer is comprised of 25 mM HEPES, pH 7.3, 150 mM NaCl, 2.0 mM DTT, and 0.01% BSA. The enzyme reaction is carried out in a 96-well assay plate, in a final volume of […]. Solutions of test compounds are prepared in 100% DMSO. Reaction additions, in order, are (1) 2.0 μL compound solution, (2) 80 μL of assay buffer, (3) […] of 10 μM UDP-3-O—(R-3-hydroxymyristoyl)-N-acetylglucosamine (in assay buffer) and, (4) 10 μL of LpxC enzyme (20 nM in assay buffer) to initiate the reaction. In positive control reactions, addition (1) has 2.0 μL of 100% DMSO (without compound); these reactions are used as the total signal (TSB) value. Reactions are incubated at room temperature for 60 minutes when 10 μL of 1 N HCl is added to stop the reaction. The plate is shaken by hand for 10 seconds to ensure complete quenching. Assay plates are sealed with foil tape, and stored at −80° C. for 24-48 hr prior to analysis.
The concentrations of substrate and product in the reaction mixtures are determined with BioTrove's proprietary RapidFire™ high-throughput mass spectrometry (HTMS). Assay mixtures are partially purified with reverse phase chromatography, where they are washed with water containing 5 mM ammonium formate and eluted onto the mass spectrometer in 80% acetonitrile, 20% water, and 5 mM ammonium formate. The mass spectrometry peak areas of the substrate and product are measured to determine the concentration of these analytes. The assay signal is the percentage of substrate that is converted to product. Percent inhibition, % I, in test samples is determined from the following equation: […]
Using this method, the following E. coli IC50 (nM) data were obtained for selected Compounds of Formula (I);

| SMILES | IC50 |
| --- | --- |
| C[C@@H](O)[C@@H](C(=O)NO)N1Cc2ccc(Cl)cc2C1=O [Compound 21] | < 5 µM |
| C[C@@H](O)[C@@H](C(=O)NO)N1Cc2cc(N3CCC(c4ccc(-c5ccccc5)cc4)CC3)ccc2C1=O [Compound 53] | < 5 µM |
| CC(O)C(C(=O)NO)N1C(=O)c2ccc(C#Cc3ccccc3)cc2C1=O (stereo not shown) [Compound 74] | < 5 µM |
| CC(O)C(C(=O)NO)N1C(=O)c2ccc(Br)cc2C1=O (stereo not shown) [Compound 80] | < 5 µM |
| C[C@@H](O)[C@@H](C(=O)NO)N1Cc2cc(-c3ccc(-c4ccccc4)cc3)ccc2C1=O [Compound 32] | < 0.05 µM |
| C[C@@H](O)[C@@H](C(=O)NO)N1CC2CN(Cc3ccc(C#Cc4ccccc4)cc3)CCN2C1=O (stereo partly shown) [Compound 88] | < 5 µM |
| CC(O)C(C(=O)NO)N1C(=O)c2ccc(-c3ccccc3)cc2C1=O (stereo not shown) [Compound 79] | < 5 µM |
| C[C@@H](O)[C@@H](C(=O)NO)N1Cc2ccc(C#Cc3ccccc3)cc2C1=O [Compound 20] | < 5 µM |
| C[C@@H](O)[C@@H](C(=O)NO)N1Cc2cc(C#Cc3ccc(-c4ccccc4)cc3)ccc2C1=O [Compound 13] | < 0.05 µM |
| CC(O)C(C(=O)NO)n1[nH]c2cc(C#Cc3ccccc3)ccc2c1=O (stereo not shown) [Compound 65] | < 5 µM |
| C[C@@H](O)[C@@H](C(=O)NO)N1Cc2cc(N3CCN(c4ccc(C(=O)Cc5ccccc5)cc4)CC3)ccc2C1=O [Compound 50] | < 5 µM |
| C[C@@H](O)[C@@H](C(=O)NO)N1Cc2cc(N3CCN(c4ccccc4)CC3)ccc2C1=O [Compound 52] | < 5 µM |
| C[C@@H](O)[C@@H](C(=O)NO)N1CC2CN(c3ccc(C#Cc4ccccc4)cc3)CCN2C1=O (stereo partly shown) [Compound 91] | < 5 µM |
| C[C@@H](O)[C@@H](C(=O)NO)N1Cc2cc(C#Cc3cccc(-c4ccccc4)c3)ccc2C1=O [Compound 14] | < 5 µM |
| C[C@@H](O)[C@@H](C(=O)NO)N1Cc2cc(Cc3ccc(-c4ccccc4)cc3)ccc2C1=O [Compound 31] | < 0.05 µM |
| C[C@@H](O)[C@@H](C(=O)NO)N1Cc2cc(-c3ccc(C#Cc4ccccc4)cc3)ccc2C1=O [Compound 36] | < 0.05 µM |
| C[C@@H](O)[C@@H](C(=O)NO)N1Cc2cc(Br)ccc2C1=O [Compound 12] | < 5 µM |
| C[C@@H](O)[C@@H](C(=O)NO)N1Cc2cc(-c3ccccc3)ccc2C1=O [Compound 26] | < 5 µM |
| C[C@@H](O)[C@@H](C(=O)NO)N1Cc2cc(C#Cc3ccccc3)ccc2C1=O [Compound 11] | < 5 µM |
